Reference: the supplement of paper PMC4649846
One block for each compound: values may come before it.

Experiments:
MDA-MB-231 [1] = details: incubation time: 72 h
Experimental: (§1)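 MDA-MB-231 breast cancer cells were transfected with siBRCA1 or non-targeting siControl, then seeded 24 h later at 4000 cells/well in 384-well plates holding 198 drugs at 5 concentrations. Viability was read by CellTiter-Blue after 72 h at 37 °C. Dose-response curves were fitted in Dotmatics to give IC50 and a drug sensitivity score (DSS: area under the curve relative to the area between the 10% threshold and 100% inhibition, normalised by the log of the top response). The dose range is not stated. IC50 values of 8333.3 or 4166.7 nM mark no response (top dose), and 0.8333 nM is the lower limit.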

MDA-MB-231 [2] = experiment: drug sensitivity score (DSS); higher = more sensitive; extreme values may be limits of the assay; details: incubation time: 72 h
Experimental: as §1

[3] = siRNA: siControl (non-targeting)

Compound: O=P1(NCCCl)OCCCN1CCCl (stereo not given) [Ifosfamide]
IC50 of cell viability (MDA-MB-231 [1]; siRNA: siBRCA1): > 4.17 µM
IC50 of cell viability (MDA-MB-231 [1]; [3]): > 4.17 µM
drug sensitivity score (MDA-MB-231 [2]; siRNA: siBRCA1): 0
drug sensitivity score (MDA-MB-231 [2]; [3]): 0

Compound: C=C1C[C@@H]2[C@H](CC[C@]3(C)C(=O)CC[C@@H]23)[C@@]2(C)C=CC(=O)C=C12 [Exemestane]
IC50 of cell viability (MDA-MB-231 [1]; siRNA: siBRCA1): > 4.17 µM
IC50 of cell viability (MDA-MB-231 [1]; [3]): > 4.17 µM
drug sensitivity score (MDA-MB-231 [2]; siRNA: siBRCA1): 0
drug sensitivity score (MDA-MB-231 [2]; [3]): 0

Compound: COCC1(CO)C(=O)C2CCN1CC2 (stereo not given) [Prima-1 Met]
IC50 of cell viability (MDA-MB-231 [1]; siRNA: siBRCA1): > 4.17 µM
IC50 of cell viability (MDA-MB-231 [1]; [3]): > 4.17 µM
drug sensitivity score (MDA-MB-231 [2]; siRNA: siBRCA1): 0
drug sensitivity score (MDA-MB-231 [2]; [3]): 0

Compound: C/C(=C\c1csc(C)n1)[C@@H]1C[C@@H]2O[C@]2(C)CCC[C@H](C)[C@H](O)[C@@H](C)C(=O)C(C)(C)[C@@H](O)CC(=O)O1 [Epothilone B (Patupilone)]
IC50 of cell viability (MDA-MB-231 [1]; siRNA: siBRCA1): 0.0294 µM
IC50 of cell viability (MDA-MB-231 [1]; [3]): 0.0291 µM
drug sensitivity score (MDA-MB-231 [2]; siRNA: siBRCA1): 23.4
drug sensitivity score (MDA-MB-231 [2]; [3]): 23.6

Compound: CS(=O)(=O)OCCCCOS(C)(=O)=O [Busulfan]
IC50 of cell viability (MDA-MB-231 [1]; siRNA: siBRCA1): > 4.17 µM
IC50 of cell viability (MDA-MB-231 [1]; [3]): > 4.17 µM
drug sensitivity score (MDA-MB-231 [2]; siRNA: siBRCA1): 0
drug sensitivity score (MDA-MB-231 [2]; [3]): 0

Now from value to compound, other results behind:

IC50 of cell viability (MDA-MB-231 [1]; siRNA: siBRCA1): > 4.17 µM
IC50 of cell viability (MDA-MB-231 [1]; [3]): 2.56 µM
Compound: c1ccc2c(CCNc3ccc(Nc4ccncc4)cc3)c[nH]c2c1 [Serdemetan]
drug sensitivity score (MDA-MB-231 [2]; siRNA: siBRCA1): 4.84
drug sensitivity score (MDA-MB-231 [2]; [3]): 6.59

IC50 of cell viability (MDA-MB-231 [1]; siRNA: siBRCA1): > 4.17 µM
IC50 of cell viability (MDA-MB-231 [1]; [3]): 2.46 µM
Compound: COc1cc2nccc(Oc3ccc(NC(=O)Nc4cc(C)on4)c(Cl)c3)c2cc1OC [Tivozanib]
drug sensitivity score (MDA-MB-231 [2]; siRNA: siBRCA1): 3.36
drug sensitivity score (MDA-MB-231 [2]; [3]): 2.37

IC50 of cell viability (MDA-MB-231 [1]; siRNA: siBRCA1): > 4.17 µM
IC50 of cell viability (MDA-MB-231 [1]; [3]): > 4.17 µM
Compound: CC(C)C(=O)Nc1ccc([N+](=O)[O-])c(C(F)(F)F)c1 [Flutamide]
drug sensitivity score (MDA-MB-231 [2]; siRNA: siBRCA1): 0
drug sensitivity score (MDA-MB-231 [2]; [3]): 0

IC50 of cell viability (MDA-MB-231 [1]; siRNA: siBRCA1): > 4.17 µM
IC50 of cell viability (MDA-MB-231 [1]; [3]): > 4.17 µM
Compound: C[C@]1(c2nc3c(C(N)=O)cccc3[nH]2)CCCN1 [Veliparib]
drug sensitivity score (MDA-MB-231 [2]; siRNA: siBRCA1): 0
drug sensitivity score (MDA-MB-231 [2]; [3]): 0

IC50 of cell viability (MDA-MB-231 [1]; siRNA: siBRCA1): > 4.17 µM
IC50 of cell viability (MDA-MB-231 [1]; [3]): 4.07 µM
Compound: C[C@@H](Oc1cc(-c2cnn(C3CCNCC3)c2)cnc1N)c1c(Cl)ccc(F)c1Cl [Crizotinib]
drug sensitivity score (MDA-MB-231 [2]; siRNA: siBRCA1): 0.595
drug sensitivity score (MDA-MB-231 [2]; [3]): 4.02
